Like-named read-outs stand apart in the source and are kept apart here.
Key:
NF-κB = NF-κB dual luciferase reporter assay in TNF-stimulated HEK 293 T cells; format: cell-based; settings: after decay of radioactivity, HEK 293T stimulated by TNF-α
Procedure: The separation process was repeated five times for use in the activity tests. […] After 48 h, radioactive elements had decayed, the residues were stored at 4°C for anti-inflammatory activity tests ([Dong et al., 2013]; [Qingxin et al., 2016]).
HEK 293 T cells were cultured in standard Dulbecco’s modified Eagle’s medium (DMEM; Hyclone) supplemented with 10% fetal bovine serum (FBS; Biological Industries). The cells were placed in 96-well plates at 37°C in an air-CO2 environment (95/5% v/v). Cells were grown to 80–90% confluence and incubated for 12 h in DMEM without FBS. Transfection (20 h) was performed according to the manufacturer’s instructions. HEK 293 T cells were pretreated with drugs 1 h prior to TNF-stimulation (5 ng/mL) for 6 h. Dex (10^-5mol/L) was used as a positive control for NF-κB inhibition. The NF-κB activity was assayed using dual luciferase reporter assay system (Promega) according to the manufacturer’s instructions ([Qingxin et al., 2016]). Antiinflammatory activity was calculated as the ratio of firefly luciferase activity to Renilla luciferase activity (internal control).

[1] = MicroPET distribution of [^18F]-GA after PG polysaccharides intervention; format: in vivo, mice; settings: for tissue uptake at 1 h: po, read-out: %ID/g of [^18F]-GA in the lungs, OA
Procedure: The mice were grouped by weight and housed in cages of the climate control room (25°C), with a photoperiod 12:12-h. During feeding, mice were free to access food and water. Mice were fasted for 24 h before the experiment. The mice were anesthetized with 4% isoflurane while preparing for scanning ([Constantinescu et al., 2013b]; [Cui et al., 2017]). Eighteen healthy male Kunming mice, weighing 20 ± 2 g, were divided into three groups, which were control group, once-administered (OA) group and long-term administration (LA) group. In the OA group, 1 h before the administration of [^18F]-GA, the mice were orally treated with PG polysaccharides. In the LA group, the mice were orally given the PG polysaccharides for 7 days, but not before the administration of [^18F]-GA.
Rice received a tail vein injection (8.67 ± 2.14 MBq/μg) of [^18F]-GA and placed in the scanner bed and mouse-imaging room immediately ([Constantinescu et al., 2013b]; [O’Doherty et al., 2017]). Firstly, 2 h PET scanning was performed using an Inveon-dedicated PET scanner. The average delay between injection and starting of PET scanning was 3.5 min. Rice were maintained stable under 4% isoflurane anesthesia throughout scanning. The PET list-mode data were dynamically classified into 23 3D sinograms of span and three ring difference. After Fourier recombination, the data were reconstructed using a 2D ordered-subset expectation maximization algorithm. Random events were excluded before reconstruction. The response of detector is normalized using a component-based approach. All dynamic images were corrected for radioactive decay automatically. The PET images were reconstructed by a cone beam algorithm into 480 × 480 × 632 image arrays. After the reconstruction, images were spatially transformed to match the PET images ([Constantinescu et al., 2013a],[b]).
The reconstruction of the image was performed using the PMOD software (PMOD Technologies). The 3D volumes of interest (VOIs) were drawn manually of the following organs: brain, heart, liver, lungs, kidneys, cortical bone, and gallbladder. The organs were carefully identified and VOIs were drawn as irregular contours on high-resolution PET images obtained from each mouse ([Constantinescu et al., 2013b]; [Garg et al., 2017]). The size of each VOI was less than the actual size of each organ to minimize the effects of PET on adjacent organ spills. The VOIs drawing was verified by a second operator. The VOIs of cortical bone were generated by first using PET image to depict the entire femur bone ([Constantinescu et al., 2013b]). The VOI was transferred to a dynamic PET image and the mean time-activity curve (TAC) of the decay correction was extracted for each target organ ([Constantinescu et al., 2013b]).

CC1(C)[C@@H](O)CC[C@]2(C)[C@H]3C(=O)C=C4[C@@H]5C[C@@](C)(C(=O)NCCCC[18F])CC[C@]5(C)CC[C@@]4(C)[C@]3(C)CC[C@@H]12 [[^18F]-GA, [^18F]-Glycyrrhetinic acid]
inhibition of NF-κB activity (NF-κB; high concentration): significant inhibition of NF-κB activity | anti-inflammatory activity (NF-κB reporter) (NF-κB; low concentration): weak anti-inflammatory activity | inhibition of NF-κB activity (NF-κB; medium concentration): significant inhibition of NF-κB activity | time from which lung %ID/g of OA group differs significantly ([1]; OA vs. Con, Table 2): 7 min | [^18F]-GA concentration of lung, OA group relative to LA group ([1]; area under the curve, OA: PG polysaccharides 1 h before, LA: for 7 days): 2 times | [^18F]-GA concentration of lung, OA group relative to control mice ([1]; area under the curve, PG polysaccharides orally 1 h before [^18F]-GA): 2.7 times | ranking of organ concentration (area under the curve) ([1]; control group, mice): concentration of liver was highest, and the lung was lowest | tissue uptake at 60 s ([1]; male, Kunming, mouse, lungs, intravenous, mice, control group, Time(s) 60, read-out: %ID/g of [^18F]-GA in the lungs, Con): 8.86 %ID/g | tissue uptake at 180 s ([1]; male, Kunming, mouse, lungs, intravenous, mice, control group, Time(s) 180, read-out: %ID/g of [^18F]-GA in the lungs, Con): 4.36 %ID/g | tissue uptake at 300 s ([1]; male, Kunming, mouse, lungs, intravenous, mice, control group, Time(s) 300, read-out: %ID/g of [^18F]-GA in the lungs, Con): 3.29 %ID/g | tissue uptake at 420 s ([1]; male, Kunming, mouse, lungs, intravenous, mice, control group, Time(s) 420, read-out: %ID/g of [^18F]-GA in the lungs, Con): 2.78 %ID/g | tissue uptake at 540 s ([1]; male, Kunming, mouse, lungs, intravenous, mice, control group, Time(s) 540, read-out: %ID/g of [^18F]-GA in the lungs, Con): 2.42 %ID/g | tissue uptake at 780 s ([1]; male, Kunming, mouse, lungs, intravenous, mice, control group, Time(s) 780, read-out: %ID/g of [^18F]-GA in the lungs, Con): 2.1 %ID/g | tissue uptake at 900 s ([1]; male, Kunming, mouse, lungs, intravenous, mice, control group, Time(s) 900, read-out: %ID/g of [^18F]-GA in the lungs, Con): 2.15 %ID/g | tissue uptake at 1020 s ([1]; male, Kunming, mouse, lungs, intravenous, mice, control group, Time(s) 1020, read-out: %ID/g of [^18F]-GA in the lungs, Con): 2.09 %ID/g | tissue uptake at 1140 s ([1]; male, Kunming, mouse, lungs, intravenous, mice, control group, Time(s) 1140, read-out: %ID/g of [^18F]-GA in the lungs, Con): 1.9 %ID/g | tissue uptake at 1350 s ([1]; male, Kunming, mouse, lungs, intravenous, mice, control group, Time(s) 1350, read-out: %ID/g of [^18F]-GA in the lungs, Con): 1.75 %ID/g | tissue uptake at 1650 s ([1]; male, Kunming, mouse, lungs, intravenous, mice, control group, Time(s) 1650, read-out: %ID/g of [^18F]-GA in the lungs, Con): 1.66 %ID/g | tissue uptake at 1950 s ([1]; male, Kunming, mouse, lungs, intravenous, mice, control group, Time(s) 1950, read-out: %ID/g of [^18F]-GA in the lungs, Con): 1.55 %ID/g | tissue uptake at 2250 s ([1]; male, Kunming, mouse, lungs, intravenous, mice, control group, Time(s) 2250, read-out: %ID/g of [^18F]-GA in the lungs, Con): 1.51 %ID/g | tissue uptake at 2700 s ([1]; male, Kunming, mouse, lungs, intravenous, mice, control group, Time(s) 2700, read-out: %ID/g of [^18F]-GA in the lungs, Con): 1.34 %ID/g | tissue uptake at 3300 s ([1]; male, Kunming, mouse, lungs, intravenous, mice, control group, Time(s) 3300, read-out: %ID/g of [^18F]-GA in the lungs, Con): 1.26 %ID/g | tissue uptake at 3900 s ([1]; male, Kunming, mouse, lungs, intravenous, mice, control group, Time(s) 3900, read-out: %ID/g of [^18F]-GA in the lungs, Con): 1.23 %ID/g | tissue uptake at 4500 s ([1]; male, Kunming, mouse, lungs, intravenous, mice, control group, Time(s) 4500, read-out: %ID/g of [^18F]-GA in the lungs, Con): 1.05 %ID/g | tissue uptake at 5100 s ([1]; male, Kunming, mouse, lungs, intravenous, mice, control group, Time(s) 5100, read-out: %ID/g of [^18F]-GA in the lungs, Con): 1.04 %ID/g | tissue uptake at 5700 s ([1]; male, Kunming, mouse, lungs, intravenous, mice, control group, Time(s) 5700, read-out: %ID/g of [^18F]-GA in the lungs, Con): 1.02 %ID/g | tissue uptake at 6300 s ([1]; male, Kunming, mouse, lungs, intravenous, mice, control group, Time(s) 6300, read-out: %ID/g of [^18F]-GA in the lungs, Con): 0.97 %ID/g | tissue uptake at 6900 s ([1]; male, Kunming, mouse, lungs, intravenous, mice, control group, Time(s) 6900, read-out: %ID/g of [^18F]-GA in the lungs, Con): 0.94 %ID/g | tissue uptake at 1 h ([1]; male, Kunming, mouse, lungs, mice, PG polysaccharides orally 1 h before [^18F]-GA, Time(s) 60): 8.21 %ID/g | tissue uptake at 1 h ([1]; male, Kunming, mouse, lungs, mice, PG polysaccharides orally 1 h before [^18F]-GA, Time(s) 180): 5.95 %ID/g | tissue uptake at 1 h ([1]; male, Kunming, mouse, lungs, mice, PG polysaccharides orally 1 h before [^18F]-GA, Time(s) 300): 5.53 %ID/g | tissue uptake at 1 h ([1]; male, Kunming, mouse, lungs, mice, PG polysaccharides orally 1 h before [^18F]-GA, Time(s) 420): 5.2 %ID/g | tissue uptake at 1 h ([1]; male, Kunming, mouse, lungs, mice, PG polysaccharides orally 1 h before [^18F]-GA, Time(s) 540): 4.85 %ID/g | tissue uptake at 1 h ([1]; male, Kunming, mouse, lungs, mice, PG polysaccharides orally 1 h before [^18F]-GA, Time(s) 660): 4.63 %ID/g | tissue uptake at 1 h ([1]; male, Kunming, mouse, lungs, mice, PG polysaccharides orally 1 h before [^18F]-GA, Time(s) 780): 4.54 %ID/g | tissue uptake at 1 h ([1]; male, Kunming, mouse, lungs, mice, PG polysaccharides orally 1 h before [^18F]-GA, Time(s) 900): 4.53 %ID/g | tissue uptake at 1 h ([1]; male, Kunming, mouse, lungs, mice, PG polysaccharides orally 1 h before [^18F]-GA, Time(s) 1020): 4.35 %ID/g
